Data published in patent US20110195425A1, “SYSTEMS AND METHODS FOR DIAGNOSING PARASITE INFECTIONS” (priority 2010, published 2011).
Where “and” joins values, the source holds several entries; their conditions need not be identical. Identical values can stand only once.

Legend:
peroxidase = test: Peroxidase assay in saliva (Amplex Red); format: biochemical; conditions: single compounds at 500 ppm; pooled and unpooled saliva; 30 minutes; FIGS. 26-29
Method: To determine the effect of various GRAS compounds as inhibitors of peroxidase activity, a standard assay using Amplex® Red (Life Technologies), which releases a fluorescent oxidation product.
The test compounds, such as GRAS materials or cocktails of same, were prepared at a concentration of 500 ppm in distilled water. For the assay, 50 μl samples of test compounds were mixed with 20-30 μl of saliva (either “pooled” or “unpooled”) prior to the addition of Amplex® Red. Following the mixture of the test compounds with saliva, […] Amplex® Red/HRP working solution (See Protocol for Invitrogen Assay #A22188, which is incorporated herein in its entirety), which has a concentration of 100 μM of Amplex® Red, is added to the test compound/saliva mixture. […] Reactions were allowed to run for 30 minutes during these assays.

α-amylase = biological target: T1, α-amylase (Homo sapiens, UniProt P0DUB6); test: α-Amylase inhibition saliva screening (2-chloro-p-nitrophenol-maltotriose substrate, absorbance 405 nm); format: biochemical; conditions: for Ave (α-amylase assay reading): average of four readings; for α-amylase assay single reading (absorbance at 405 nm): saliva, test compound prepared at 5,000 ppm, 37° C., replicate readings
T1 sequence (P0DUB6 16-511): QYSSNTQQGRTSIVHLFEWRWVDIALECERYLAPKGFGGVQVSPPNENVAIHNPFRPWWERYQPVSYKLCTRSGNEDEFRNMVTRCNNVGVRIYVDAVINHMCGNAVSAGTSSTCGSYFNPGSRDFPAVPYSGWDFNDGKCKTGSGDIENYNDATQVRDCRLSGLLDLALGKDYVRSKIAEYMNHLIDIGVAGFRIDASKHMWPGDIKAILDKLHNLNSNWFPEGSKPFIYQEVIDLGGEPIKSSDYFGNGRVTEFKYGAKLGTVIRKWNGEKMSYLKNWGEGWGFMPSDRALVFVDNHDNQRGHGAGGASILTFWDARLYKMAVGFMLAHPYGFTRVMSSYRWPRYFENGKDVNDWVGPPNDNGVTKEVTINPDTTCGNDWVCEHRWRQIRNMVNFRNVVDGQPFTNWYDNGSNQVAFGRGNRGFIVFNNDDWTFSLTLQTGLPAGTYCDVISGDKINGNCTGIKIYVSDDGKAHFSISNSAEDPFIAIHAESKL
From the text: Enzymatic activity of α-amylase on the substrate yields 2-chloro-p-nitrophenol, which can be measured spectrophotometrically at 405 nm. The amount of α-amylase activity present in the experimental sample is directly proportional to the increase in absorbance at 405 nm.

Cn1c(=O)c2c(ncn2C)n(C)c1=O [CDI #33, Caffeine]
peroxidase inhibition (peroxidase): significant peroxidase inhibition capabilities

COc1ccc(O)c(C(C)(C)C)c1 [CDI-039, 3-tert--butyl-hydroxyanisole]
peroxidase inhibition (peroxidase): significant peroxidase inhibition capabilities

Aluminum potassium sulfate dodecahydrate [CDI-42]
Ave (α-amylase assay reading) (α-amylase; 0 min): 0.92 | α-amylase assay single reading (absorbance at 405 nm) (α-amylase; 0 min): 0.80 and 1.13 and 0.90 and 0.84 | Ave (α-amylase assay reading) (α-amylase; 5 min): 1.85 | α-amylase assay single reading (absorbance at 405 nm) (α-amylase; 5 min): 1.65 and 2.15 and 1.80 and 1.81 | Ave (α-amylase assay reading) (α-amylase; 15 min): 2.29 | α-amylase assay single reading (absorbance at 405 nm) (α-amylase; 15 min): 2.37 and 2.38 and 2.25 and 2.17 | peroxidase inhibition (peroxidase): significant peroxidase inhibition capabilities

Aluminum sulfate hydrate [CDI-34]
Ave (α-amylase assay reading) (α-amylase; 0 min): 0.40 | α-amylase assay single reading (absorbance at 405 nm) (α-amylase; 0 min, sulfate hydrate): 0.40 (2×) and 0.36 and 0.45 | Ave (α-amylase assay reading) (α-amylase; 5 min): 0.50 | α-amylase assay single reading (absorbance at 405 nm) (α-amylase; 5 min, sulfate hydrate): 0.49 and 0.50 (2×) and 0.52 | Ave (α-amylase assay reading) (α-amylase; 15 min): 0.56 | α-amylase assay single reading (absorbance at 405 nm) (α-amylase; 15 min, sulfate hydrate): 0.53 and 0.61 and 0.54 and 0.56
